Data: patent US20240151732A1, “EX VIVO METHOD FOR ANALYSING A TISSUE SAMPLE USING PROTEOMIC PROFILE MATCHING, AND ITS USE FOR THE DIAGNOSIS, PROGNOSIS OF PATHOLOGIES AND FOR PREDICTING RESPONSE TO TREATMENTS” (Université de Bordeaux, priority 2021, published 2024)

How the values were obtained:
advanced HCC [1] = settings: phase III study, first line; Kudo et al. [10]; cited from earlier work
HUH7 cells = test: growth of HUH7 cells; type: cell-based; settings: in our hands
HCC cells = settings: in vitro and in vivo; Xu et al. [23]; cited from earlier work
advanced HCC [2] = settings: SHARP test; proportion of good responders to sorafenib; cited from earlier work

In the case of `COc1cc2nccc(Oc3ccc(NC(=O)NC4CC4)c(Cl)c3)c2cc1C(N)=O` [lenvatinib], the “overall survival compared to sorafenib” value (advanced HCC [1]) is given as “non-inferiority”.

For `Cc1ncc(C[n+]2csc(CCO)c2C)c(=O)[nH]1` [oxythiamine], the “effect on the growth of HUH7 cells” value (HUH7 cells) is listed as “did not confirm the effect” and the “efficacy in HCC cells” value (HCC cells) is listed as “effective”.

In the case of `CNC(=O)c1cc(Oc2ccc(NC(=O)Nc3ccc(Cl)c(C(F)(F)F)c3)cc2)ccn1` [sorafenib], the objective response (advanced HCC [2]) is listed as 2%.
